Reference: ChEMBL document CHEMBL4616724, “Topoisomerase Inhibitors Addressing Fluoroquinolone Resistance in Gram-Negative Bacteria” (J Med Chem, 2020)
≈ marks a conversion by molar mass, not a printed value.

How the values were obtained:
[1] = Protein binding in CD1 mouse plasma at 10 uM incubated for 4 hrs under shaking condition by LC-MS/MS analysis; type: ADME, cell-free; settings: read-out: PPB (converted)
Citrobacter = experiment: Antibacterial activity against Citrobacter clinical isolates by CLSI-based broth microdilution assay; type: functional
Escherichia coli [2] = experiment: Antibacterial activity against Escherichia coli clinical isolates by CLSI-based broth microdilution assay; type: functional
Klebsiella oxytoca = experiment: Antibacterial activity against Klebsiella oxytoca clinical isolates by CLSI-based broth microdilution assay; type: functional
[3] = Intrinsic clearance in mouse liver microsomes at 1 uM in presence of NADPH and measured up to 30 mins by LC-MS/MS analysis; type: ADME, Microsome; settings: read-out: CLH
Escherichia coli [4] = experiment: Antibacterial activity against wild type Escherichia coli ATCC 25922 at pH 5.8 by CLSI-based broth microdilution assay; type: functional
[5] = Intrinsic clearance in rat liver microsomes at 1 uM in presence of NADPH and measured up to 30 mins by LC-MS/MS analysis; type: ADME, Microsome; settings: read-out: CLH
K562 = experiment: Cytotoxicity against human K562 cells assessed as reduction in cell viability after 72 hrs by Cell-titer Glo assay; type: cell-based; settings: K562, 72 h
Morganella morganii = experiment: Antibacterial activity against Morganella morganii clinical isolates by CLSI-based broth microdilution assay; type: functional
Pseudomonas aeruginosa [6] = experiment: Antibacterial activity against Pseudomonas aeruginosa NB52023 harboring gyrA T83I mutant/ParC S87L mutant by CLSI-based broth microdilution assay; type: functional
Pseudomonas aeruginosa [7] = experiment: Antibacterial activity against wild type Pseudomonas aeruginosa PAO1 K767 by CLSI-based broth microdilution assay; type: functional
Escherichia coli [8] = experiment: Antibacterial activity against wild type Escherichia coli ATCC 25922 at pH 7.4 by CLSI-based broth microdilution assay; type: functional
[9] = Tmax in rat at 10 mg/kg, po measured up to 24 hrs by LC-MS/MS analysis; type: ADME, organism-based; settings: in vivo
Pseudomonas aeruginosa [10] = experiment: Antibacterial activity against Pseudomonas aeruginosa K1542/K767 harboring MexB/MexXY deletion mutant by CLSI-based broth microdilution assay; type: functional
[11] = Dose normalized Cmax in mouse at 5 mg/kg, po measured up to 24 hrs by LC-MS/MS analysis; type: ADME, organism-based; settings: in vivo
NIH3T3 = experiment: Phototoxicity against BALB/c mouse 3T3 cells assessed as reduction in cell viability preincubated for 1 hr followed by 5 J/cm2 UVA sunlight irradiation for 50 mins and subsequent replacement of medium and measured after 24 hrs by neutral red uptake assay; type: cell-based; settings: NIH3T3, light or radiation study
Escherichia coli [12] = experiment: Ratio of MIC for antibacterial activity against wild type Escherichia coli ATCC 25922 at pH 5.8 to MIC for antibacterial activity against wild type Escherichia coli ATCC 25922 at pH 7.4; type: functional
[13] = Efflux ratio of apparent permeability in human Caco2 cells at 10 uM after 2 hrs by LC-MS/MS analysis; type: ADME, cell-based; settings: Caco-2
[14] = target: Voltage-gated inwardly rectifying potassium channel KCNH2 (Homo sapiens, UniProt Q12809); experiment: Inhibition of human ERG expressed in CHOK1 cells measured for 10 mins by QPatch automated patch-clamp assay; type: cell-based, CHO-K1
[15] = Volume of distribution at steady state in rat at 5 mg/kg, iv or 10 mg/kg, po measured up to 24 hrs by LC-MS/MS analysis; type: ADME, organism-based; settings: in vivo, read-out: Vdss
Klebsiella pneumoniae [16] = experiment: Antibacterial activity against Klebsiella pneumoniae clinical isolates by CLSI-based broth microdilution assay; type: functional
[17] = Protein binding in pooled human plasma at 10 uM incubated for 4 hrs under shaking condition by LC-MS/MS analysis; type: ADME, cell-free; settings: read-out: PPB (converted)
MOLT-4 = experiment: Cytotoxicity against human MOLT4 cells assessed as reduction in cell viability after 72 hrs by Cell-titer Glo assay; type: cell-based; settings: MOLT-4, 72 h
DNA gyrase = DNA gyrase (Escherichia coli, UniProt P0AES4+P0AES6); experiment: Inhibition of recombinant full-length C-terminal His6-tagged Escherichia coli DNA gyrase AB supercoiling activity using relaxed DNA as substrate preincubated for 30 mins followed by substrate addition and measured after 2 hrs in presence of ATP by size exclusion HPLC analysis; type: protein-complex assay
Enterobacter = experiment: Antibacterial activity against Enterobacter clinical isolates by CLSI-based broth microdilution assay; type: functional
Serratia marcescens = experiment: Antibacterial activity against Serratia marcescens clinical isolates by CLSI-based broth microdilution assay; type: functional
[18] = Dose normalized Cmax in rat at 10 mg/kg, po measured up to 24 hrs by LC-MS/MS analysis; type: ADME, organism-based; settings: in vivo
Pseudomonas aeruginosa [19] = experiment: Antibacterial activity against Pseudomonas aeruginosa clinical isolates by CLSI-based broth microdilution assay; type: functional
[20] = Intrinsic clearance in human liver microsomes at 1 uM in presence of NADPH and measured up to 30 mins by LC-MS/MS analysis; type: ADME, Microsome; settings: read-out: CLH
[21] = n-Octanol-PBS buffer partition coefficient, log D of the compound at pH 7.4 after overnight incubation by LC/UV/qTOF analysis; type: physicochemical
[22] = Solubility of the compound in pH 7 PBS incubated for 24 hrs under gently shaking condition by UPLC/UV/CLND/MS analysis; type: physicochemical; settings: PBS, pH 7
Proteus mirabilis = experiment: Antibacterial activity against Proteus mirabilis clinical isolates by CLSI-based broth microdilution assay; type: functional
Escherichia coli [23] = experiment: Bacteriostatic activity against Escherichia coli ATCC 25922 infected in mouse model of neutropenic thigh infection assessed as static dose compound administered subcutaneously 2 hrs post infection and measured after 24 hrs by serial dilution method; type: functional
[24] = Protein binding in Sprague-Dawley rat plasma at 10 uM incubated for 4 hrs under shaking condition by LC-MS/MS analysis; type: ADME, cell-free; settings: read-out: PPB (converted)
[25] = Photoirradiation factor, ratio of IC50 for BALB/c mouse 3T3 cells under dark condition to IC50 for BALB/c mouse 3T3 cells under 5 J/cm2 sunlight irradiation by neutral red uptake assay; type: ADME, cell-based, NIH3T3; settings: BALB/c 3T3 cells, read-out: Ratio IC50
[26] = Dose normalized AUC in mouse at 5 mg/kg, po measured up to 24 hrs by LC-MS/MS analysis; type: ADME, organism-based; settings: in vivo
[27] = Dissociation constant, pKa of the compound by UV metric method; type: physicochemical
Klebsiella pneumoniae [28] = experiment: Antibacterial activity against wild type Klebsiella pneumoniae ATCC 43816 by CLSI-based broth microdilution assay; type: functional
[29] = Tmax in mouse at 5 mg/kg, po measured up to 24 hrs by LC-MS/MS analysis; type: ADME, organism-based; settings: in vivo

Voltage-gated inwardly rectifying potassium channel KCNH2, sequence (Q12809 whole entry): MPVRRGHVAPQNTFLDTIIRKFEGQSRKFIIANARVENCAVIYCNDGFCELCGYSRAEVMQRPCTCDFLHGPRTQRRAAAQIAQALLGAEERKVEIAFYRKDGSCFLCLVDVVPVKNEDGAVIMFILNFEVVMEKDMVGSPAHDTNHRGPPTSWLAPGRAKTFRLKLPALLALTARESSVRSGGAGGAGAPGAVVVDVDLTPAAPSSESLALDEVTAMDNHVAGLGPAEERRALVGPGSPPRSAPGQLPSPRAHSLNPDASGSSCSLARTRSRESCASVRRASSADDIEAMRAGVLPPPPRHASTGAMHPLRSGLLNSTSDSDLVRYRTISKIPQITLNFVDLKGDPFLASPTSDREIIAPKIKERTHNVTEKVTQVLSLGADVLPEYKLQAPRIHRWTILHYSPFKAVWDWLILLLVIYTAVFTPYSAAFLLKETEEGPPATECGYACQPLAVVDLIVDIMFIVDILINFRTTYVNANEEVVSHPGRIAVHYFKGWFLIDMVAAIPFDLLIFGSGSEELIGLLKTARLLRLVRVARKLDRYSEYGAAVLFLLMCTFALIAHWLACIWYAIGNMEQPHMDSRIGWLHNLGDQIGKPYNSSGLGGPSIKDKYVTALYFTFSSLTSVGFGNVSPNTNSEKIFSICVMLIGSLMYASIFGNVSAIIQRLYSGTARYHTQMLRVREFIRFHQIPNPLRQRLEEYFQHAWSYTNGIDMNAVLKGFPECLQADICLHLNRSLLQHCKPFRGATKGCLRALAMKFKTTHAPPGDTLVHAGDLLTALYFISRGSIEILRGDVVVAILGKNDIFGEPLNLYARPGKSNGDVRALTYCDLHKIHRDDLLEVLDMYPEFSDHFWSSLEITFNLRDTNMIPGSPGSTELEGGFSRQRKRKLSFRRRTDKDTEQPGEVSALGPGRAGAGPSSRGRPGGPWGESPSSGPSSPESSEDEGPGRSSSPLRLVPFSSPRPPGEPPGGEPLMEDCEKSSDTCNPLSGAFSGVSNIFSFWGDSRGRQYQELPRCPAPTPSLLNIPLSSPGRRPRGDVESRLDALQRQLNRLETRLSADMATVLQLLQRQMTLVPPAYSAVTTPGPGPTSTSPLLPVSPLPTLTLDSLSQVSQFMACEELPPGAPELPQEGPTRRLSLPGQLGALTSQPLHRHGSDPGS

With `Cc1c(N2CC3CC3(N)C2)c(F)cc2c(CN)c(F)c(=O)n(C3CC3)c12` (configuration not stated) the fraction unbound at 4 h, 10 µM [1] was 0.68, the MIC (Citrobacter) was 0.06 to 32 µg/mL (≈ 0.166 to 88.8 µM) and the MIC50 (Citrobacter) was 1 µg/mL (≈ 2.77 µM). The MIC90 (Citrobacter) was 8 µg/mL (≈ 22.2 µM), the MIC (Escherichia coli [2]) was 0.06 to 8 µg/mL (≈ 0.166 to 22.2 µM) and the MIC50 (Escherichia coli [2]) was 1 µg/mL (≈ 2.77 µM). The MIC90 (Escherichia coli [2]) was 2 µg/mL (≈ 5.55 µM), the MIC (Klebsiella oxytoca) was 0.06 to 32 µg/mL (≈ 0.166 to 88.8 µM) and the MIC50 (Klebsiella oxytoca) was 1 µg/mL (≈ 2.77 µM). It also gave an MIC90 (Klebsiella oxytoca) of 8 µg/mL (≈ 22.2 µM), a microsomal CLint at 1 µM [3] of 40 µL/min/mg and an MIC (Escherichia coli [4]) of 32 µg/mL (≈ 88.8 µM). For the same molecule, the microsomal CLint at 1 µM [5] was 117 µL/min/mg, the EC50 (K562) was 40 µM and the MIC (Morganella morganii) was 0.06 to 32 µg/mL (≈ 0.166 to 88.8 µM). The MIC50 (Morganella morganii) was 1 µg/mL (≈ 2.77 µM), the MIC90 (Morganella morganii) was 8 µg/mL (≈ 22.2 µM) and the MIC (Pseudomonas aeruginosa [6]) was 0.5 µg/mL (≈ 1.39 µM). The MIC (Pseudomonas aeruginosa [7]) was 1 µg/mL (≈ 2.77 µM), the MIC (Escherichia coli [8]) was 0.06 µg/mL (≈ 0.166 µM) and the Tmax [9] was 1.3 h. The MIC (Pseudomonas aeruginosa [10]) was 0.25 µg/mL (≈ 0.694 µM), the Cmax/dose [11] was 0.1 µM/mg/kg and the IC50 (NIH3T3) was 1610 nM. For the same molecule, the Ratio (Escherichia coli [12]) was 512, the efflux ratio at 2 h, 10 µM [13] was 1.8 and the IC50 [14] was 114 µM. It also gave a Vd [15] of 24.1 L/kg, an MIC (Klebsiella pneumoniae [16]) of 0.25 to 32 µg/mL (≈ 0.694 to 88.8 µM) and an MIC50 (Klebsiella pneumoniae [16]) of 4 µg/mL (≈ 11.1 µM). For the same molecule, the MIC90 (Klebsiella pneumoniae [16]) was 16 µg/mL (≈ 44.4 µM), the fraction unbound at 4 h, 10 µM [17] was 0.65 and the EC50 (MOLT-4) was 29 µM. It also gave an IC50 (DNA gyrase) of 1250 nM, an MIC (Enterobacter) of 0.06 to 32 µg/mL (≈ 0.166 to 88.8 µM) and an MIC50 (Enterobacter) of 1 µg/mL (≈ 2.77 µM). For the same molecule, the MIC90 (Enterobacter) was 8 µg/mL (≈ 22.2 µM), the MIC (Serratia marcescens) was 0.06 to 32 µg/mL (≈ 0.166 to 88.8 µM) and the MIC50 (Serratia marcescens) was 1 µg/mL (≈ 2.77 µM). It also gave an MIC90 (Serratia marcescens) of 8 µg/mL (≈ 22.2 µM), a Cmax/dose [18] of 0.01 µM/mg/kg and an MIC (Pseudomonas aeruginosa [19]) of 1 to 32 µg/mL (≈ 2.77 to 88.8 µM). It also gave an MIC50 (Pseudomonas aeruginosa [19]) of 8 µg/mL (≈ 22.2 µM), an MIC90 (Pseudomonas aeruginosa [19]) of 32 µg/mL (≈ 88.8 µM) and a microsomal CLint at 1 µM [20] of 18 µL/min/mg. It also gave a logD [21] of 1.1, a solubility at 24 h [22] of 1280 µg/mL (≈ 3540 µM) and an MIC (Proteus mirabilis) of 0.06 to 32 µg/mL (≈ 0.166 to 88.8 µM). The MIC50 (Proteus mirabilis) was 1 µg/mL (≈ 2.77 µM), the MIC90 (Proteus mirabilis) was 8 µg/mL (≈ 22.2 µM) and the Activity (Escherichia coli [23]) was 45.5 mg/kg/day. It also gave a fraction unbound at 4 h, 10 µM [24] of 0.42, a selectivity ratio [25] of 621 and an AUC/dose [26] of 0.31 µM·h/mg/kg. For the same molecule, the pKa [27] was 7.6 to 8, the MIC (Klebsiella pneumoniae [28]) was 0.125 µg/mL (≈ 0.347 µM) and the Tmax [29] was 30 min.
